Source: US20170283440A1, “CARM1 INHIBITORS AND USES THEREOF” (Epizyme, Inc., priority 2014, published 2017)
Like-named read-outs stand apart in the source and are kept apart here.

Assays:
Human CARM1 (PRMT4) = target: T1, Human CARM1 (PRMT4) (Homo sapiens, UniProt Q86X55); test: CARM1 enzyme assay on peptide substrate (3H-SAM Flashplate); assay type: biochemical; settings: CARM1 0.25 nM, 3H-SAM 30 nM, peptide 250 nM; read-out: Biochem IC50
T1 construct: Flag-CARM1-His was eluted with 200 ug/ml FLAG peptide in buffer A; made in house; host or cells: HEK 293F cells infected with recombinant baculovirus (pFastBacMam)
From the text: S-adenosylmethionine (SAM), S-adenosylhomocysteine (SAH), bicine, Tween20, dimethylsulfoxide (DMSO), bovine skin gelatin (BSG), sodium butyrate and Tris(2-carboxyethyl)phosphine hydrochloride solution (TCEP) were purchased from Sigma-Aldrich at the highest level of purity possible. ^3H-SAM was purchase from American Radiolabeled Chemicals with a specific activity of 80 Ci/mmol. 384-well streptavidin Flashplates were purchased from PerkinElmer.
Peptide representative of human histone H3 residues 16-30 was synthesized with an N-terminal linker-affinity tag motif and a C-terminal amide cap by 21st Century Biochemicals. The peptide was purified by high-performance liquid chromatography (HPLC) to greater than 95% purity and confirmed by liquid chromatography mass spectrometry (LC-MS). The sequence was Biot-Ahx-[…]-amide and contained a monomethylated arginine at position 26 (SEQ ID NO.:1).
Human CARM1 (PRMT4) (NM_199141.1) transcript clone was amplified from an HEK 293 cDNA library, incorporating a flanking 5′ sequence encoding a FLAG tag ([…]) (SEQ ID NO.:2) fused directly to Ala 2 of CARM1 and 3′ sequence encoding a hexa His sequence ([…]) (SEQ ID NO.:3) fused directly to Ser 608. The gene sequence encoding isoform1 containing a deletion of amino acids 539-561 was amplified subsequently and subcloned into pFastBacMam (Viva Biotech).
Recombinant baculovirus were generated according to Bac-to-Bac kit instructions (Life Technologies). Protein over-expression was accomplished by infecting exponentially growing HEK 293F cell culture at 1.3×10^6 cell/ml with virus (MOI=10) in the presence of 8 mM sodium butyrate. Infections were carried out at 37° C. for 48 hours, harvested by centrifugation, and stored at −80° C. for purification.
Column was washed with 500 mM NaCl in buffer A and Flag-CARM1-His was eluted with 200 ug/ml FLAG peptide in buffer A. Pooled fractions were dialyzed in 20 mM Tris, 150 mM NaCl, 5% glycerol and 1 mM DTT, pH 7.8. The purity of recovered protein was 94.
The assays were all performed in a buffer consisting of 20 mM Bicine (pH=7.6), 1 mM TCEP, 0.005% BSG, and 0.002% Tween 20, prepared on the day of use. Compounds in 100% DMSO (1 ul) were spotted into a polypropylene 384-well V-bottom plates (Greiner) using a Platemate Plus outfitted with a 384-channel head (Thermo Scientific). DMSO (1 ul) was added to Columns 11, 12, 23, 24, rows A-H for the maximum signal control and 1 ul of SAH, a known product and inhibitor of CARM1, was added to columns 11, 12, 23, 24, rows I—P for the minimum signal control. A cocktail (40 ul) containing the CARM1 enzyme was added by Multidrop Combi (Thermo-Fisher). The compounds were allowed to incubate with CARM1 for 30 min at room temperature, then a cocktail (10 ul) containing ^3H-SAM and peptide was added to initiate the reaction (final volume=51 ul). The final concentrations of the components were as follows: CARM1 was 0.25 nM, ^3H-SAM was 30 nM, peptide was 250 nM, SAH in the minimum signal control wells was 1 mM, and the DMSO concentration was 2%. The assays were stopped by the addition of non-radiolabeled SAM (10 ul) to a final concentration of 300 uM, which dilutes the ^3H-SAM to a level where its incorporation into the peptide substrate is no longer detectable. 50 ul of the reaction in the 384-well polypropylene plate was then transferred to a 384-well Flashplate and the biotinylated peptides were allowed to bind to the streptavidin surface for at least 1 hour before being washed once with 0.1% Tween20 in a Biotek ELx405 plate washer. The plates were then read in a PerkinElmer TopCount plate reader to measure the quantity of ^3H-labeled peptide bound to the Flashplate surface, measured as disintegrations per minute (dpm) or alternatively, referred to as counts per minute (cpm).
where dpm=disintegrations per minute, cmpd=signal in assay well, and min and max are the respective minimum and maximum signal controls. […]

[1] = tested on: asymmetric di-methyl PABP1 in RKO cells; test: RKO methylation assay (In Cell Western for asymmetric di-methyl PABP1); assay type: cell-based; settings: 48 hours incubation, read-out: Cellular IC50
From the text: RKO adherent cells were purchased from ATCC (American Type Culture Collection), Manassas, Va., USA. DMEM/Glutamax medium, penicillin-streptomycin, heat inactivated fetal bovine serum, 0.05% trypsin and D-PBS were purchased from Life Technologies, Grand Island, N.Y., USA. Odyssey blocking buffer, 800CW goat anti-rabbit IgG (H+L) antibody, and Licor Odyssey infrared scanner were purchased from Licor Biosciences, Lincoln, Nebr., USA. Asymmetric di-methyl PABP1 antibody was purchased from Cell Signaling Technology, Danvers, Mass., USA. Methanol was purchased from VWR, Franklin, Mass., USA. 10% Tween 20 was purchased from KPL, Inc., Gaithersburg, Md., USA. Paraformaldehyde (PFA) was purchased from EM Sciences. DRAQ5 was purchased from Biostatus Limited, Leicestershire, UK.
RKO adherent cells were maintained in growth medium (DMEM/Glutamax medium supplemented with 10% v/v heat inactivated fetal bovine serum and 100 units/mL penicillin-streptomycin) and cultured at 37° C. under 5% CO2.
Compound (100 nL) from a 96-well source plate was added directly to 384 well cell plate. Plates were incubated at 37° C., 5% CO2 for 48 hours. After two days of incubation, plates were brought to room temperature outside of the incubator for ten minutes and blotted on paper towels to remove cell media. Cells were fixed for 20 minutes at room temperature by adding 50 ul of 8% PFA followed by aspiration of supernatant with the Biotek EL406 plate washer. Cells were then permeabilized by addition of 50 μL of ice cold 100% methanol directly to each well and incubated for 30 min at room temperature. After 30 min, plates were transferred to a Biotek EL406 plate washer and washed 2 times with 100 μL per well of wash buffer (IX PBS). Next 60 μL per well of Odyssey blocking buffer (Odyssey Buffer with 0.1% Tween 20 (v/v)) were added to each plate and incubated 1 hour at room temperature. Blocking buffer was removed and 20 μL per well of primary antibody was added (asymmetric-methyl PABP1) diluted 1:400 in Odyssey buffer with 0.1% Tween 20 (v/v)) and plates were incubated overnight (16 hours) at 4° C. Plates were washed 5 times with 100 μL per well of wash buffer. Next 20 μL per well of secondary antibody was added (1:800 800CW goat anti-rabbit IgG (H+L) antibody, 1:2000 DRAQ5 in Odyssey buffer with 0.1% Tween 20 (v/v)) and incubated for 1 hour at room temperature. The plates were washed 5 times with 100 μL per well wash buffer then 2 times with 100 μL per well of water. Plates were allowed to dry at room temperature then imaged on the Licor Odyssey machine which measures integrated intensity at 700 nm and 800 nm wavelengths. Both 700 and 800 channels were scanned.
First, the ratio for each well was determined by:
Each plate included fourteen control wells of DMSO only treatment (minimum inhibition) as well as fourteen control wells for maximum inhibition treated with 20 μM of a reference compound. The average of the ratio values for each control type was calculated and used to determine the percent […] for each test well in the plate. Reference compound was serially diluted three-fold in DMSO for a total of nine test concentrations, beginning at 20 μM.
Percent inhibition was determined and IC50 curves were generated using triplicate wells per concentration of compound.

T1 sequence (Q86X55 other isoform, or with tags, fused parts or gaps): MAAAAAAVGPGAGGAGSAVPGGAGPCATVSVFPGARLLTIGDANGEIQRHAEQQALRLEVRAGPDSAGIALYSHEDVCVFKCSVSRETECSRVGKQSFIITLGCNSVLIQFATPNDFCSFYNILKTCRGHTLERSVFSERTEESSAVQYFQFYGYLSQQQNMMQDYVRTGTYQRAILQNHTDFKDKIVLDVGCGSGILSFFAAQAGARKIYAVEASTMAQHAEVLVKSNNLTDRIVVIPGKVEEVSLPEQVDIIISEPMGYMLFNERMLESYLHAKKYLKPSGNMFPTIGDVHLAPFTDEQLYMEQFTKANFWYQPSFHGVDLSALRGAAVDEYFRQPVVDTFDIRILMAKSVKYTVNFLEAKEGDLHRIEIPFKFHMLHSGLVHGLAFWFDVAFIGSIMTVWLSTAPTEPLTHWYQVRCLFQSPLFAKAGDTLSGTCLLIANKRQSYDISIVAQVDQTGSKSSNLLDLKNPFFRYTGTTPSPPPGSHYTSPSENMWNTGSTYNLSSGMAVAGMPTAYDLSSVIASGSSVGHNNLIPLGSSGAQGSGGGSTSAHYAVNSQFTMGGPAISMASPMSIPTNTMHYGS

Compound	IC50 (Human CARM1 (PRMT4)) [µM]	IC50 ([1]; Homo sapiens) [µM]	IC50 [1] [µM]
Cc1nn(C(C)C)c2nc(-c3cccc(OCC(O)CN)c3)cc(N3CCOCC3)c12 (stereo not drawn) [Example 1-2]	< 0.1	10 to 20	
CNCC(O)COc1cccc(-c2cc(C(=O)NCc3c(C)cc(C)[nH]c3=O)c3cnn(C(C)C)c3n2)c1 (stereo not drawn) [Example 1-3]	< 0.1	> 20	
CCOC(=O)c1c(-c2cccc(OCC(O)CNC)c2)nc2c(cnn2C(C)C)c1N1CCOCC1 (stereo not drawn) [Example 1-5]	0.1 to 1	> 20	
CNCC(O)COc1cc(OC)cc(-c2cc(-c3cnc4[nH]ccc4c3)n3ncc(C(C)C)c3n2)c1 (stereo not drawn) [Example 1-6]	< 0.1	> 20	
CNCC(O)COc1cc(OC)cc(-c2cc(-c3cnc4[nH]ccc4c3)nc3c(C(C)C)cnn23)c1 (stereo not drawn) [Example 1-7]	< 0.1	> 20	
CC(C)n1ncc2c(N3CCOCC3)cc(-c3cccc(OC[C@H](O)CN)c3)nc21 [Example 1-8]	< 0.1	10 to 20	
CNCC(O)COc1cc(Cl)cc(-c2cc(N(C)C3CCOCC3)n3ncc(C4CC4)c3n2)c1 (stereo not drawn) [Example 1-9]	< 0.1	> 20	
CNCC(O)COc1cccc(-c2cc(NC3CCOCC3)c3c(C4CC4)nn(C(C)C)c3n2)c1 (stereo not drawn) [Example 2-2]	< 0.1	> 20	
CNCC(O)COc1cc(Cl)cc(-c2cc(NC3CCOCC3)c3cnn(C(C)C)c3n2)c1 (stereo not drawn) [Example 2-4]	< 0.1	> 20	
CNCC(O)COc1cc(OC)cc(-c2cc(N(C)C3CCOCC3)n3ncc(C(C)C)c3n2)c1 (stereo not drawn) [Example 2-6]	< 0.1	5 to 10	
CNCC(O)COc1cc(Cl)cc(-c2cc(-c3cc[nH]n3)nc3c(C(C)C)cnn23)c1 (stereo not drawn) [Example 2-7]	< 0.1	> 20	
Cc1cc(C)c(CNC(=O)c2cc(-c3cccc(OCC(O)CN)c3)nc3c2cnn3C(C)C)c(=O)[nH]1 (stereo not drawn) [Example 2-8]	< 0.1	> 20	
CNCC(O)COc1cc(OC)cc(-c2cc(N(C)C3CCOCC3)n3ncc(C4CC4)c3n2)c1 (stereo not drawn) [Example 2-9]	< 0.1	> 20	
CNCC(O)COc1cccc(-c2cc(N3CCOCC3)c3c(C)nn(C(C)C)c3n2)c1 (stereo not drawn) [Example 3-2]	< 0.1	10 to 20	
CC(C)n1ncc2c(C(=O)NCC3CCOCC3)cc(-c3cccc(OCC(O)CN)c3)nc21 (stereo not drawn) [Example 3-3]	0.1 to 1	> 20	
CNCC(O)COc1cc(OC)cc(-c2cc(N(C)c3cncnc3)c3cnn(C(C)C)c3n2)c1 (stereo not drawn) [Example 3-4]	< 0.1	10 to 20	
CNCC(O)COc1cccc(-c2nc(NC3CCOCC3)c3cnn(C(C)(C)C)c3n2)c1 (stereo not drawn) [Example 3-5]	< 0.1		5 to 10
CNCC(O)COc1cc(-c2cc(N3CCOCC3)n3ncc(C(C)C)c3n2)cc(C2CC2)c1 (stereo not drawn) [Example 3-6]	< 0.1	> 20	
CNCC(O)COc1cc(OC)cc(-c2cc(N3CCOCC3)nc3c(C4CC4)cnn23)c1 (stereo not drawn) [Example 3-7]	< 0.1	10 to 20	
CNCC(O)COc1cccc(-c2cc(NCC#N)c3cnn(C(C)C)c3n2)c1 (stereo not drawn) [Example 3-8]	0.1 to 1	> 20	
CNCC(O)COc1cccc(-c2cc(N(C)Cc3ccccn3)c3cnn(C(C)C)c3n2)c1 (stereo not drawn) [Example 3-9]	< 0.1	10 to 20	
CNCC(O)COc1cccc(-c2nc(N3[C@@H]4CC[C@H]3COC4)c3cnn(C4CC4)c3n2)c1 (stereo partly drawn) [Example 5-5]	0.1 to 1	> 20	

Continued, values first:

IC50 (Human CARM1 (PRMT4)) [µM]	IC50 ([1]; Homo sapiens) [µM]	IC50 [1] [µM]	Compound
< 0.1	10 to 20		CNCC(O)COc1cccc(-c2cc(NC3CCOCC3)c3c(C)nn(C(C)C)c3n2)c1 (stereo not drawn) [Example 4-2]
< 0.1	10 to 20		Cc1cc(OCC(O)CN)cc(-c2cc(N3CCOCC3)c3cnn(C(C)C)c3n2)c1 (stereo not drawn) [Example 4-4]
< 0.1	> 20		CNCC(O)COc1cccc(-c2cc(-c3cnc4[nH]ccc4c3)nc3c(C(C)C)cnn23)c1 (stereo not drawn) [Example 4-7]
< 0.1	> 20		CC(C)c1cnn2c(N3CCOCC3)cc(-c3cccc(OCC(O)CN)c3)nc12 (stereo not drawn) [Example 4-8]
< 0.1	> 20		CNCC(O)COc1cccc(-c2cc(N(C)C3CCOCC3)nc(N3CCOCC3)n2)c1 (stereo not drawn) [Example 4-9]
0.1 to 1	> 20		CNCC(O)COc1cccc(-c2cc(NC3CCOCC3)c3c(C#N)nn(C(C)C)c3n2)c1 (stereo not drawn) [Example 5-2]
< 0.1	10 to 20		COc1cc(OCC(O)CN)cc(-c2cc(N3CCOCC3)c3cnn(C(C)C)c3n2)c1 (stereo not drawn) [Example 5-4]
< 0.1	> 20		CNCC(O)COc1cc(OC)cc(-c2cc(C)n3ncc(C(C)C)c3n2)c1 (stereo not drawn) [Example 5-6]
< 0.1			CNCC(O)COc1cccc(-c2cc(N(C)[C@H]3CCOC3)n3ncc(C(C)C)c3n2)c1 (stereo partly drawn) [Example 14-6]
< 0.1			CNCC(O)COc1cccc(-c2cc(N(C)C3CCOCC3)n3ncc(C(C)(C)C)c3n2)c1 (stereo not drawn) [Example 16-8]
< 0.1			CNCC(O)COc1cc(OC)cc(-c2cc(N(C)C3CCOCC3)n3ncc(C4CC4)c3n2)c1 (stereo not drawn) [Example 44-6]
